In patent publication US20150087687A1 (priority 2012, published 2015):
Like-named read-outs stand apart in the source and are kept apart here.

Columns and labels:
cytochrome P450 1A2 [1] = biological target: T1, cytochrome P450 1A2 (Homo sapiens, UniProt P05177); experiment: metabolism by cytochrome P450 1A2; assay type: in vitro ADME; details: by oxidation
HUVEC [2] = details: antiangiogenic effects; cited from earlier work
HL-60 myeloid cells = details: cited from earlier work
ECV304 [3] = details: antiangiogenic effects; cited from earlier work
[4] = system: HT-29 colorectal cell lines; details: cited from earlier work
K562 [5] = details: CML; cited from earlier work
K562 [6] = details: cited from earlier work
murine cancer models = details: mouse, in vivo; cited from earlier work
[7] = system: Walker 256 carcino-sarcoma; details: in vivo; cited from earlier work
W256 cells = details: cited from earlier work
[8] = system: malignant cell lines, particularly AML cell lines; experiment: viability of cancer cell lines (Example 2); assay type: cell-based; details: 0.1-100 μM, 24 or 48 hours, FIG. 1-3
Procedure: Viability at 48 hours is shown by (♦); viability at 24 hours is shown by (▪).

[9] = cited from earlier work
STK25 = STK25 (Homo sapiens, UniProt O00506); experiment: targeting of kinases (FIG. 4): STK25; assay type: binding
STK25, sequence (O00506 whole entry, species assumed): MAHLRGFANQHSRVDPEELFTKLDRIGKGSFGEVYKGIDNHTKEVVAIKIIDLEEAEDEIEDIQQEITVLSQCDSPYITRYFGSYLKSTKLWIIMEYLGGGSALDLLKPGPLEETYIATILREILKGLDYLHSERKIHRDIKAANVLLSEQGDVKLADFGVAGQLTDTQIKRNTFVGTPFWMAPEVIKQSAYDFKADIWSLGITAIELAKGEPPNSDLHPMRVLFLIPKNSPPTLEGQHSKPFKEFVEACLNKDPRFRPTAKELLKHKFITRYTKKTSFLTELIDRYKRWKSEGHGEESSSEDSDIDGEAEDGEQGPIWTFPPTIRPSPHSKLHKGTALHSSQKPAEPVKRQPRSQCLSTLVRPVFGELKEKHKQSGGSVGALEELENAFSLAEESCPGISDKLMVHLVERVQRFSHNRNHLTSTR

Bcl-2 = details: induces apoptosis; cited from earlier work
ECV304 [10] = details: cited from earlier work
AML NOD/SCID model = details: cited from earlier work
AML cells = AML cells (DKO insensitive to chemotherapy); cited from earlier work
U937 = details: AML; cited from earlier work
[11] = system: human myeloblastic leukemic cells; details: cited from earlier work
HL-60 cells = details: cited from earlier work
ERBB3 = ERBB3 (Homo sapiens, UniProt P21860); experiment: targeting of kinases (FIG. 4): ERBB3; assay type: binding
ERBB3, sequence (P21860 20-1342, species assumed): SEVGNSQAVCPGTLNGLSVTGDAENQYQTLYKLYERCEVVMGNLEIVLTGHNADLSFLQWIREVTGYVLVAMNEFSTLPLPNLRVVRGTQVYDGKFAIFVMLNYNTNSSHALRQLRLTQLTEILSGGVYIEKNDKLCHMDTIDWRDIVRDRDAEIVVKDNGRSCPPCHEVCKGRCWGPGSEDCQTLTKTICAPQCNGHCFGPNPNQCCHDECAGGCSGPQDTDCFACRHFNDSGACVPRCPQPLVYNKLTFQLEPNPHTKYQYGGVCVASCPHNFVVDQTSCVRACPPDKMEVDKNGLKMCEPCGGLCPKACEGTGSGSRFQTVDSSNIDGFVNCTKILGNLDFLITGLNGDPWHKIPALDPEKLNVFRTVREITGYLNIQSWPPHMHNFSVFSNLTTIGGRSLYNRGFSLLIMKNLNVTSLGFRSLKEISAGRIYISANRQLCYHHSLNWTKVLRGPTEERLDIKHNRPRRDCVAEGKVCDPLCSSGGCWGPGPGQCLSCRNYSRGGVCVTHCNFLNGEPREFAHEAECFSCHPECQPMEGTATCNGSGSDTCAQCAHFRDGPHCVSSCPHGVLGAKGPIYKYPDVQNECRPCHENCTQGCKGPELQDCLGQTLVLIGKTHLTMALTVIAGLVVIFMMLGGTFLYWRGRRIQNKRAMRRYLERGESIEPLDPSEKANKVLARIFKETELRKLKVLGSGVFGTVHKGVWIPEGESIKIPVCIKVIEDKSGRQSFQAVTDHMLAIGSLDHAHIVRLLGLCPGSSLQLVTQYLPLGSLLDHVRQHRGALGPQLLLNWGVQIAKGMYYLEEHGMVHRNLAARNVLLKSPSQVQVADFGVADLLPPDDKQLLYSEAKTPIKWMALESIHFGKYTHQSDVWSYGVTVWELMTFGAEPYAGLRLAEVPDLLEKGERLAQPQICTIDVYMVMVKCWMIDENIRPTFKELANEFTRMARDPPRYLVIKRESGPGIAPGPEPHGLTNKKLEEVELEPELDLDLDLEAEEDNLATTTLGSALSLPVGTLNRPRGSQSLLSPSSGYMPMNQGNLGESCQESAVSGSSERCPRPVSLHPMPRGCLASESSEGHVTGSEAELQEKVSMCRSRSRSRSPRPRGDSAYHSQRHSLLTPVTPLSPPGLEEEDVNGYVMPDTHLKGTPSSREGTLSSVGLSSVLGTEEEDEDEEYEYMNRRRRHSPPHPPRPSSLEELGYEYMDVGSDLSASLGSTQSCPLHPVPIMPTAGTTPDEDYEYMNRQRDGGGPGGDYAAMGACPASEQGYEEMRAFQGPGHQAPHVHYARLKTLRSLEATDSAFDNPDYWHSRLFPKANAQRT

K562 cells = details: cited from earlier work
[12] = cited from earlier work; remark: listed apart in the source
[13] = system: hepatic cytochrome P450 (CYP); details: cited from earlier work
cytochrome P450 2C19 = cytochrome P450 2C19 (Homo sapiens, UniProt P33261); experiment: metabolism by cytochrome P450 2C19; assay type: in vitro ADME; details: by oxidation
cytochrome P450 2C19, sequence (P33261 whole entry): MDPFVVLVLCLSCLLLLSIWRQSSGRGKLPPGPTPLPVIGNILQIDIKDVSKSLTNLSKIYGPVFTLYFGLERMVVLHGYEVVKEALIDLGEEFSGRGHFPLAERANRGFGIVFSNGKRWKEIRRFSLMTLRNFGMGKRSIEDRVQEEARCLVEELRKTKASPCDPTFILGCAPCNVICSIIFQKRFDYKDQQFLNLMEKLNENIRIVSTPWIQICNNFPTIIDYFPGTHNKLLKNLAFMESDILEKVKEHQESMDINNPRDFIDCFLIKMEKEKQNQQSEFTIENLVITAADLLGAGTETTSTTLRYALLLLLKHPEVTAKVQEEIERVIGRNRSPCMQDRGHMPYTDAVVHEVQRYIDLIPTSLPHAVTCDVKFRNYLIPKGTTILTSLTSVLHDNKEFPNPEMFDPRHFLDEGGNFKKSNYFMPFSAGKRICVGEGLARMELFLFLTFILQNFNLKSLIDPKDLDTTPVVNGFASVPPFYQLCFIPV

[14] = cited from earlier work; remark: listed apart in the source
HL-60 = details: AML; cited from earlier work
Jurkat cells = details: inducing phosphorylation of c-Myb; cited from earlier work
[15] = rats; cited from earlier work
[16] = system: negative cell cycle regulators p21 and p27; details: induces cell cycle arrest; cited from earlier work
[17] = biological target: glycogen synthase kinase-3β (GSK-3β) (Homo sapiens, UniProt P49841); details: concentration at which inhibition is stated; cited from earlier work
glycogen synthase kinase-3β (GSK-3β), sequence (P49841 whole entry, species assumed): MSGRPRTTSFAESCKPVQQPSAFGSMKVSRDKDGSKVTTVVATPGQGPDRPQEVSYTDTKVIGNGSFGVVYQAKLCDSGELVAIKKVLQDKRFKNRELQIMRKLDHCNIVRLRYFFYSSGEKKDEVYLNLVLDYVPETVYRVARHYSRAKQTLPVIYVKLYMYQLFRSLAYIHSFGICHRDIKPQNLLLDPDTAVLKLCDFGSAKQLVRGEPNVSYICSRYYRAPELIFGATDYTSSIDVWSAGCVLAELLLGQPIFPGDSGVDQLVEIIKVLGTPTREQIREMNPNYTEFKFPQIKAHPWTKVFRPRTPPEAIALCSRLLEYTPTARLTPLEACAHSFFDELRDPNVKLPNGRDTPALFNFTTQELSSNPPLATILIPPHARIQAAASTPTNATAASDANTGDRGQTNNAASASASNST

NEK9 = NEK9 (Homo sapiens, UniProt Q8TD19); experiment: targeting of kinases (FIG. 4): NEK9; assay type: binding
NEK9, sequence (Q8TD19 whole entry, species assumed): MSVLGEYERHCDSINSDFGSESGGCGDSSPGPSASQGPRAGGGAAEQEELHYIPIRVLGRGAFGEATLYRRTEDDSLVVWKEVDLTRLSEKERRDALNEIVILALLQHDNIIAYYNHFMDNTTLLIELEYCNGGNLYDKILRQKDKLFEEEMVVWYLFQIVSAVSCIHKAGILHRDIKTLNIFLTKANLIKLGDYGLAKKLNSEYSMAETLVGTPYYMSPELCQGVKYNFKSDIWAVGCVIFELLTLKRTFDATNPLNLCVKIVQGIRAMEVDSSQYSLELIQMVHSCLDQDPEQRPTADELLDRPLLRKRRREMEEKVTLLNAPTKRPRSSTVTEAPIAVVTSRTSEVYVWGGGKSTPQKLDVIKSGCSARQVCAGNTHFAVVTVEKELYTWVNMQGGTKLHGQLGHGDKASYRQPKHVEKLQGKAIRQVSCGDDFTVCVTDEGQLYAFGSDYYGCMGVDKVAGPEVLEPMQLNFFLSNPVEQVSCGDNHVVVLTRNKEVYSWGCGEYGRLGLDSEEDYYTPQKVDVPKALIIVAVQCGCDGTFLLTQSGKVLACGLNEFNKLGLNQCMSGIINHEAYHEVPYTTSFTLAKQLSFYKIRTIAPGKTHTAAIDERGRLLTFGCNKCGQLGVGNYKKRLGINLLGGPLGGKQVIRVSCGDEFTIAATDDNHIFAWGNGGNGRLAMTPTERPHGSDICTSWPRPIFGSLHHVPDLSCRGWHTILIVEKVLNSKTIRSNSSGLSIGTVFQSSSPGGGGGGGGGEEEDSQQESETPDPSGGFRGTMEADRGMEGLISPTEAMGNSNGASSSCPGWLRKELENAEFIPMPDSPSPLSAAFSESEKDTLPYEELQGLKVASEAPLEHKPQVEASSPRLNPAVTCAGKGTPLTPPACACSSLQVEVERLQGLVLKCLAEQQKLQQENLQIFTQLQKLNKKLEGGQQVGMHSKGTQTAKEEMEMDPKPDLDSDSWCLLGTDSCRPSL

mitochondria = details: effects on mitochondria; cited from earlier work
[18] = cited from earlier work; remark: listed apart in the source
[19] = system: uridine glucuronyltransferases (UGT); experiment: metabolism by uridine glucuronyltransferases; assay type: in vitro ADME; details: direct conjugation, without initial cytochrome P450 oxidation; more polar metabolites
cytochrome P450 1A2 [20] = biological target: T1, cytochrome P450 1A2; experiment: inhibition of cytochrome P450 1A2; assay type: in vitro ADME
[21] = cited from earlier work; remark: listed apart in the source
Lewis lung sarcoma = details: mouse, in vivo; cited from earlier work
cytochrome P450 2C8 = cytochrome P450 2C8 (Homo sapiens, UniProt P10632); experiment: inhibition of cytochrome P450 2C8; assay type: in vitro ADME
cytochrome P450 2C8, sequence (P10632 whole entry): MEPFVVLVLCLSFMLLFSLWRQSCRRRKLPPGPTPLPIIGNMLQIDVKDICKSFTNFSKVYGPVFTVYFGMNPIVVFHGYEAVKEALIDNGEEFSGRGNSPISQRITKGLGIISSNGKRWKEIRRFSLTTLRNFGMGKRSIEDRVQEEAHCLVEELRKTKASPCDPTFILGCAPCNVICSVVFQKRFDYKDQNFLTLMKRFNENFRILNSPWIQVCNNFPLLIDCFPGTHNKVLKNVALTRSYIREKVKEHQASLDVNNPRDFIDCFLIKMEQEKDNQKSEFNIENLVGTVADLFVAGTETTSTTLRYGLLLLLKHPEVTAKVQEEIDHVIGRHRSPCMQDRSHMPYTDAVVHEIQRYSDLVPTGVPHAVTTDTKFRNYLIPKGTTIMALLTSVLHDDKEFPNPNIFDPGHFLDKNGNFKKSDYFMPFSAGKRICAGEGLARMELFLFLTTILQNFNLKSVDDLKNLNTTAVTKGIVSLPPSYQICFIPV

VCAM-1 = details: antiangiogenic effects; cited from earlier work
VEGF = details: antiangiogenic effects; cited from earlier work
CD11b = details: promoting myeloid differentiation; cited from earlier work
[22] = system: cell lines and primary cancer cells; details: cited from earlier work
primary AML cells = details: cited from earlier work
[23] = rat; cited from earlier work
[24] = system: chronic myelogenous leukemia (CML); details: cited from earlier work
HUVEC [25] = details: cited from earlier work
[26] = system: HT-29 colorectal xenografts; details: mouse, in vivo; cited from earlier work
microtubule assembly = details: cited from earlier work
primary AML = details: cited from earlier work
NB4 = details: AML; cited from earlier work
AML cell lines = details: cited from earlier work

T1 sequence (P05177 whole entry): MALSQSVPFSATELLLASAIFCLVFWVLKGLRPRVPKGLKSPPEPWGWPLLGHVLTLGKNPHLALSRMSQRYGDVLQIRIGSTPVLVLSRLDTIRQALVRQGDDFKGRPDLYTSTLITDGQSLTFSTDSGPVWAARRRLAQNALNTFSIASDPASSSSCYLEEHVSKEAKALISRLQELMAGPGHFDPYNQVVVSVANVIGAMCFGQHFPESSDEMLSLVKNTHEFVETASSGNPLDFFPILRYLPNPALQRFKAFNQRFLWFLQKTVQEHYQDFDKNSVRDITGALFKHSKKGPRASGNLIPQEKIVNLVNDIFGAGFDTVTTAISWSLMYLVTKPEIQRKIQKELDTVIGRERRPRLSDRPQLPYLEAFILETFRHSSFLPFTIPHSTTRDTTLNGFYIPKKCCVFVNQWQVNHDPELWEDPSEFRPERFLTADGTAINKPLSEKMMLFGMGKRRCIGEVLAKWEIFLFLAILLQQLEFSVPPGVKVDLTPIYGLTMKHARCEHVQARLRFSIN

Question: With CN1C(=O)/C(=C2/C(=O)Nc3ccccc32)c2ccccc21 [meisoindigo, 3-(1,2-dihydro-2-oxo-3H-indol-3-ylidene)-1,3-dihydro-1-methyl-2H-indol-2-one] as the molecule, how does the “metabolized by cytochrome P450 1A2” value (cytochrome P450 1A2 [1]) read?
Answer: The value was “metabolized”.

Question: And the “tubule formulation in HUVEC” value (HUVEC [2])?
Answer: The value was “decreased”.

Question: What about the “cleavage of PARP” value (HL-60 myeloid cells) of the same molecule?
Answer: Its value is “stimulates the cleavage”.

Question: What about the “cleavage of pro-caspase 3” value (HL-60 myeloid cells) of the same molecule?
Answer: The value was “stimulates the cleavage”.

Question: What about the “cleavage of pro-caspase 8” value (HL-60 myeloid cells) of the same molecule?
Answer: The value was “stimulates the cleavage”.

Question: What about the “cleavage of pro-caspase 9” value (HL-60 myeloid cells) of the same molecule?
Answer: The value was “stimulates the cleavage”.

Question: What about the ECV304 apoptosis (ECV304 [3]) of the same molecule?
Answer: Its ECV304 apoptosis is “apoptosis”.

Question: And the “cell cycle specific effect” value [4]?
Answer: Its value is “G2/M arrest”.

Question: And the “activity against K562” value (K562 [5])?
Answer: Its value is “activity”.

Question: What about the c-myc (K562 [6]) of the same molecule?
Answer: The c-myc was “not”.

Question: What about the “efficacy in murine cancer models” value (murine cancer models) of the same molecule?
Answer: Its value is “effective”.

Question: What about the “efficacy in Walker 256 carcino-sarcoma” value [7] of the same molecule?
Answer: The value was “effective”.

Question: And the DNA synthesis (W256 cells)?
Answer: The DNA synthesis was “inhibition”.

Question: What about the RNA synthesis (W256 cells) of the same molecule?
Answer: The RNA synthesis was “inhibition”.

Question: And the “killing of malignant cell lines” value [8]?
Answer: Its value is “effective in killing”.

Question: What about the “mild nausea and vomiting” value ([9]; clinical trials, single agent or in combination with chemotherapy) of the same molecule?
Answer: The value was 30%.

Question: And the “cardiac, hepatic, or renal adverse effects” value ([9]; clinical trials)?
Answer: The value was “no cardiac, hepatic, or renal adverse effects”.

Question: What about the “course of nausea and vomiting” value ([9]; clinical trials) of the same molecule?
Answer: Its value is “spontaneously disappeared in two weeks”.

Question: What about the tolerability ([9]; several patient populations) of the same molecule?
Answer: The tolerability was “well tolerated”.

Question: What about the “binding with STK25” value (STK25) of the same molecule?
Answer: Its value is “significant binding”.

Question: And the Bcl-2 (Bcl-2)?
Answer: Its Bcl-2 is “suppression”.

Question: What about the “activity against ECV304” value (ECV304 [10]) of the same molecule?
Answer: The value was “activity”.

Question: What about the spleen size (AML NOD/SCID model; AML NOD/SCID model) of the same molecule?
Answer: The spleen size was “dose-dependent spleen size reduction”.

Question: What about the “efficacy in AML NOD/SCID model” value (AML NOD/SCID model; mouse, in vivo) of the same molecule?
Answer: The value was “effective”.

Question: And the Bak (AML cells)?
Answer: Its Bak is “upregulation”.

Question: What about the Bax (AML cells) of the same molecule?
Answer: The Bax was “upregulation”.

Question: What about the “activity against U937” value (U937) of the same molecule?
Answer: The value was “activity”.

Question: What about the c-myb gene expression [11] of the same molecule?
Answer: Its c-myb gene expression is “downregulation”.

Question: What about the differentiation [11] of the same molecule?
Answer: The differentiation was “promotes differentiation”.

Question: And the c-myc (HL-60 cells)?
Answer: The c-myc was “decreases”.

Question: And the β-catenin (HL-60 cells)?
Answer: The β-catenin was “decreases”.

Question: What about the “binding with ERBB3” value (ERBB3) of the same molecule?
Answer: Its value is “significant binding”.

Question: And the apoptosis mechanism (K562 cells)?
Answer: Its apoptosis mechanism is “novel caspase-dependent pathway”.

Question: What about the target organs ([12]; dog) of the same molecule?
Answer: Its target organs is “liver and the gastrointestinal tract”.

Question: What about the well tolerated dose ([12]; dogs, p.o. for 6 months) of the same molecule?
Answer: Its well tolerated dose is 10 mg/kg/day.

Question: What about the “sex differences in metabolism” value [13] of the same molecule?
Answer: Its value is “no sex differences”.

Question: And the metabolic routes ([13]; hepatic cytochrome P450 (CYP)-mediated)?
Answer: The metabolic routes was “N-demethylation and mono ring hydroxylation”.

Question: And the “interspecies differences in metabolism” value ([13]; rats, pigs, and humans)?
Answer: Its value is “no major interspecies differences”.

Question: And the “metabolized by cytochrome P450 2C19” value (cytochrome P450 2C19)?
Answer: Its value is “metabolized”.

Question: What about the water solubility [14] of the same molecule?
Answer: Its water solubility is “water-soluble”.

Question: And the “activity against HL-60” value (HL-60)?
Answer: The value was “activity”.

Question: And the Ahi-1 (Jurkat cells)?
Answer: The Ahi-1 was “upregulation”.

Question: And the “single dose LD50” value [15]?
Answer: The value was 3900 mg/kg.

Question: And the p21 [16]?
Answer: Its p21 is “upregulation”.

Question: And the p27 [16]?
Answer: The p27 was “upregulation”.

Question: And the “inhibition of GSK-3β at” value [17]?
Answer: The value was 5 to 50 nM.

Question: What about the “binding with NEK9” value (NEK9) of the same molecule?
Answer: Its value is “strongest binding”.

Question: What about the Bax protein expression (mitochondria) of the same molecule?
Answer: The Bax protein expression was “no change”.

Question: And the Bcl-2 protein expression (mitochondria)?
Answer: The Bcl-2 protein expression was “no change”.

Question: What about the Bid protein expression (mitochondria) of the same molecule?
Answer: The Bid protein expression was “no change”.

Question: What about the “human hepatic internal CL (Clint)” value [18] of the same molecule?
Answer: The value was ~83 mL/mg/kg.

Question: What about the “metabolized by UGT” value [19] of the same molecule?
Answer: Its value is “metabolized”.

Question: What about the “inhibits cytochrome P450 1A2 at” value (cytochrome P450 1A2 [20]) of the same molecule?
Answer: The value was “low micromolar concentrations”.

Question: And the absorption ([21]; in vivo)?
Answer: Its absorption is “rapidly absorbed”.

Question: What about the distribution ([21]; in vivo) of the same molecule?
Answer: Its distribution is “widely distributed in the tissues”.

Question: And the excretion ([21]; renal and biliary routes)?
Answer: The excretion was “renal excretion strongly predominating”.

Question: What about the “efficacy in Lewis lung sarcoma” value (Lewis lung sarcoma) of the same molecule?
Answer: The value was “effective”.

Question: And the “inhibits cytochrome P450 2C8 at” value (cytochrome P450 2C8)?
Answer: Its value is “low micromolar concentrations”.

Question: And the VCAM-1 (VCAM-1)?
Answer: The VCAM-1 was “decreased”.

Question: And the VEGF protection (VEGF)?
Answer: Its VEGF protection is “decreased”.

Question: And the CD11b (CD11b)?
Answer: The CD11b was “upregulation”.

Question: What about the IC50 ([22]; cell lines and primary cancer cells) of the same molecule?
Answer: Its IC50 is “high-μM concentration range”.

Question: What about the “active against cell lines and primary cancer cells” value [22] of the same molecule?
Answer: Its value is “active”.

Question: And the Bcl-2 (primary AML cells)?
Answer: Its Bcl-2 is “downregulation”.

Question: And the p21 (primary AML cells)?
Answer: The p21 was “upregulation”.

Question: And the p27 (primary AML cells)?
Answer: The p27 was “upregulation”.

Question: And the target organs [23]?
Answer: The target organs was “liver and the gastrointestinal tract”.

Question: And the complete hematologic response ([24]; 50-200 mg/d p.o.)?
Answer: The complete hematologic response was 33 % of patients.

Question: What about the partial hematologic response ([24]; 50-200 mg/d p.o.) of the same molecule?
Answer: The partial hematologic response was 58 % of patients.

Question: And the “reduction of leukocyte count (median)” value ([24]; 50-200 mg/d p.o.)?
Answer: The value was 31 days.

Question: And the “reduction of splenomegaly (median)” value ([24]; 50-200 mg/d p.o.)?
Answer: The value was 25 days.

Question: What about the effect with hydroxyurea ([24]; combination with hydroxyurea) of the same molecule?
Answer: Its effect with hydroxyurea is “synergistic effect”.

Question: What about the “activity against HUVEC” value (HUVEC [25]) of the same molecule?
Answer: Its value is “activity”.

Question: And the “efficacy in HT-29 colorectal xenografts” value [26]?
Answer: The value was “effective”.

Question: And the microtubule assembly (microtubule assembly)?
Answer: Its microtubule assembly is “inhibition”.

Question: And the “activity against primary AML” value (primary AML)?
Answer: The value was “activity”.

Question: And the “activity against NB4” value (NB4)?
Answer: The value was “activity”.

Question: What about the “cell cycle specific effect” value (AML cell lines) of the same molecule?
Answer: The value was “arrest in G(O)/G1”.
